The results in this text go back to ChEMBL document CHEMBL1667855, “Pyrrolidinone diterpenoid from Isodon excisus and inhibition of nitric oxide production in lipopolysaccharide-induced macrophage RAW264.7 cells” (Bioorg Med Chem Lett, 2011).

For data set [1], the system named is RAW264.7. As to the kind of experiment: Cytotoxicity against mouse RAW264.7 cells assessed as cell viability by cell counting-based calorimetric assay.
The subject of data set [2] is RAW264.7. As to the kind of experiment: Inhibition of LPS-induced NO production in mouse RAW264.7 cells assessed as nitrite formation after 24 hrs. It counts as functional, cell-based. The conditions noted are these: RAW264.7, 24 h.

For orientation: IC50 means the concentration that inhibits the measured activity by half. With `C[C@H](O)/C=C/[C@@]12O[C@]1(C)C[C@@H](O)CC2(C)C` [CORCHOIONOL A], the Activity result in the data set with RAW264.7 [1] is listed as “Non-toxic”. The IC50 in the data set with RAW264.7 [2] is more than 40 µM.

Regarding `C=C1[C@@H]2C[C@H](O)[C@@H]3[C@@](C2)(C[C@H](O)[C@@H]2C(C)(C)[C@@H](OC(C)=O)C[C@H](O)[C@]23C)[C@@H]1OC(C)=O` [INFLEXARABDONIN D], the Activity result in the data set on RAW264.7 [1] is “Non-toxic”. Also, the 50% inhibitory concentration (IC50) in the data set with RAW264.7 [2] is more than 40 µM.

For `C=C1C(=O)[C@@]23CC[C@@H]4[C@](C)(CO[C@@H]5CCC(=O)N5)[C@@H](OC(C)=O)CC[C@@]4(C)[C@@H]2[C@@H](O)C[C@@H]1C3` [EXCISUSIN F], in the data set with RAW264.7 [1], the Activity entry is reported as “Non-toxic”. In addition, the IC50 in the data set with RAW264.7 [2] worked out at 10.4 µM.

For `CC[C@H](O)/C=C/C=C/C=C/C(=O)CCCCCCCC(=O)O` [CORCHORIFATTY ACID B], the Activity result with RAW264.7 [1] was “Non-toxic”. For the same molecule, the IC50 with RAW264.7 [2] is more than 40 µM.

As for `C=C1C(=O)[C@@]23CC(=O)[C@@H]4C(C)(C)[C@@H](OC(C)=O)C[C@H](O)[C@@]4(C)[C@@H]2[C@@H](O)C[C@@H]1C3` [INFLEXARABDONIN E], the Activity entry in the data set with RAW264.7 [1] is reported as “Non-toxic”. Moreover, the IC50 in the data set with RAW264.7 [2] is 3.8 µM.
